How the values were obtained:
Human CD73 = biological target: T1, Human CD73 (Homo sapiens, UniProt P21589); assay: CD73 Enzyme Assay; type: biochemical; details: 0.25 nM hCD73, 25 μM AMP, kinetic read at 360 nm; read-out: CD73 Enzyme Assay IC50
T1 construct: purchased R&D Systems; host or cells: CHO cells
T1 sequence (P21589 27-549): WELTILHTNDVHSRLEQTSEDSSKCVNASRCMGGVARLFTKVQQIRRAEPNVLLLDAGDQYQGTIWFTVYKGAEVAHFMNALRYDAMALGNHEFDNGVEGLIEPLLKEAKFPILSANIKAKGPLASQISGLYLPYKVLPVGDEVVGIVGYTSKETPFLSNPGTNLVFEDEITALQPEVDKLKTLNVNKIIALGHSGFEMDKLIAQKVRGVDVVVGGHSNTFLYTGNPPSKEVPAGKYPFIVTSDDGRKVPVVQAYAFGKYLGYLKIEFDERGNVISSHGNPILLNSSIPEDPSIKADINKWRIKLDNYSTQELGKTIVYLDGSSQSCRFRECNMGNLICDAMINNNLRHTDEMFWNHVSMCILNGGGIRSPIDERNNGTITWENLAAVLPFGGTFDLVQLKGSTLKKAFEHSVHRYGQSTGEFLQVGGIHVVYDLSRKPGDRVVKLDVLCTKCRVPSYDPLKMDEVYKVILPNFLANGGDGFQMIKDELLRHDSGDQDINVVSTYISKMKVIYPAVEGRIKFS

[1] = biological target: T2, CD73 on U138 human neuroglioma cells (Homo sapiens, UniProt P21589); assay: CD73 Cell-Based Assay; details: U138 cells, AMP substrate, 2 hours at 37° C., inorganic phosphate by malachite green
T2 construct: U138 cells were obtained from ATCC and cultured in DMEM with 10% FBS; host or cells: U138 human neuroglioma cells
T2 sequence (P21589 27-549): T1 sequence (P21589 27-549)
In short: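 Whole U138 cells washed free of phosphate were incubated with 200 μM AMP (mixture concentration before equal-volume addition) plus compound in HEPES-buffered saline, pH 7.4, for 2 h at 37 °C, 5% CO2. Adenosine-forming activity read as inorganic phosphate released into supernatant by malachite green.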

| SMILES | IC50 (Human CD73) [nM] | IC50 [1] [nM] |
| --- | --- | --- |
| C[C@@H](Nc1nc(C#N)nc2c1ccn2[C@@H]1O[C@H](COCP(=O)(O)O)[C@@H](O)[C@H]1O)c1ccc(F)cn1 [Compound 145, [(2R,3S,4R,5R)-5-[2-cyano-4-[[(1R)-1-(5-fluoro-2-pyridyl)ethyl]-amino]pyrrolo[2,3-d]-pyrimidin-7-yl]-3,4-dihydroxy-tetrahydro-furan-2-yl]methoxy-methylphosphonic acid] | 100 to 1000 | 10 to 100 |
| O=P(O)(O)COC[C@H]1O[C@@H](n2cnc3c(NC4CCCC4)ncnc32)[C@H](O)[C@@H]1O [Compound 32, [(2R,3S,4R,5R)-5-[6-(cyclopentylamino)-purin-9-yl]-3,4-dihydroxy-tetrahydro-furan-2-yl]methoxy-methylphosphonic acid] | 100 to 1000 | 100 to 1000 |
| CC(C)Nc1ncnc2c1ncn2[C@@H]1O[C@H](COCP(=O)(O)O)[C@@H](O)[C@H]1O [Compound 12, [(2R,3S,4R,5R)-3,4-dihydroxy-5-[6-(iso-propylamino)purin-9-yl]tetrahydrofuran-2-yl]methoxymethyl-phosphonic acid] | 100 to 1000 | > 1000 |
| C[C@H](Nc1nc(Cl)nc2c1ccn2[C@@H]1O[C@H](COCP(=O)(O)O)[C@@H](O)[C@H]1O)c1ccc(F)cn1 [Compound 139, [(2R,3S,4R,5R)-5-[2-chloro-4-[[(1S)-1-(5-fluoro-2-pyridyl)-ethyl]amino]pyrrolo-[2,3-d]pyrimidin-7-yl]-3,4-dihydroxy-tetrahydrofuran-2-yl]-methoxymethylphos-phonic acid] | < 10 | 10 to 100 |
| C[C@@H](Nc1nc(Cl)nc2c1ccn2[C@@H]1O[C@H](COCP(=O)(O)O)[C@@H](O)[C@H]1O)c1ccccc1F [Compound 87, [(2R,3S,4R,5R)-5-[2-chloro-4-[[(1R)-1-(2-fluorophenyl)ethyl]-amino]pyrrolo[2,3-d]-pyrimidin-7-yl]-3,4-dihydroxy-tetrahydro-furan-2-yl]methoxy-methylphosphonic acid] | < 10 | < 10 |
| C[C@H](Nc1nc(Cl)nc2c1ccn2[C@@H]1O[C@H](COCP(=O)(O)O)[C@@H](O)[C@H]1O)c1ccccc1F [Compound 79, [(2R,3S,4R,5R)-5-[2-chloro-4-[[(1S)-1-(2-fluorophenyl)ethyl]-amino]pyrrolo[2,3-d]-pyrimidin-7-yl]-3,4-dihydroxy-tetrahydro-furan-2-yl]methoxy-methylphosphonic acid] | < 10 | 10 to 100 |
| CC(C)[C@H](Nc1nc(Cl)nc2c1ccn2[C@@H]1O[C@H](COCP(=O)(O)O)[C@@H](O)[C@H]1O)c1ccccc1 [Compound 85, [(2R,3S,4R,5R)-5-[2-chloro-4-[[(1S)-2-methyl-1-phenyl-propyl]amino]pyrrolo-[2,3-d]pyrimidin-7-yl]-3,4-dihydroxy-tetrahydrofuran-2-yl]methoxymethyl-phosphonic acid] | < 10 | < 10 |
| O=P(O)(O)COC[C@H]1O[C@@H](n2ccc3c(NC4CCCC4)nc(C(F)(F)F)nc32)[C@H](O)[C@@H]1O [Compound 231, [(2R,3S,4R,5R)-5-[4-(cyclopentylamino)-2-(trifluoromethyl)-pyrrolo[2,3-d]-pyrimidin-7-yl]-3,4-dihydroxy-tetrahydro-furan-2-yl]methoxy-methylphosphonic acid] | 10 to 100 | 10 to 100 |
| C[C@@H](Nc1nc(Cl)nc2c1ncn2[C@@H]1O[C@H](COCP(=O)(O)O)[C@@H](O)[C@H]1O)c1ccccc1 [Compound 20, [(2R,3S,4R,5R)-5-[2-chloro-6-[[(1R)-1-phenylethyl]amino]-purin-9-yl]-3,4-dihydroxy-tetrahydro-furan-2-yl]methoxy-methylphosphonic acid] | 10 to 100 | 10 to 100 |
| O=P(O)(O)COC[C@H]1O[C@@H](n2ccc3c(N4CCC4)nc(Cl)nc32)[C@H](O)[C@@H]1O [Compound 112, [(2R,3S,4R,5R)-5-[4-(azetidin-1-yl)-2-chloro-pyrrolo[2,3-d]-pyrimidin-7-yl]-3,4-dihydroxy-tetrahydro-furan-2-yl]methoxy-methylphosphonic acid] | 10 to 100 | 10 to 100 |

Next, values leading:

| IC50 (Human CD73) [nM] | IC50 [1] [nM] | SMILES |
| --- | --- | --- |
| 10 to 100 | 10 to 100 | O=P(O)(O)CS(=O)(=O)C[C@H]1O[C@@H](n2ccc3c(NC4CCCC4)nc(C(F)(F)F)nc32)[C@H](O)[C@@H]1O [Compound 303, [(2S,3S,4R,5R)-5-[4-(cyclopentylamino)-2-(trifluoromethyl)-pyrrolo[2,3-d]-pyrimidin-7-yl]-3,4-dihydroxy-tetrahydro-furan-2-yl]methyl-sulfonylmethylphos-phonic acid] |
| < 10 | < 10 | N#Cc1nc(NC2CCC2)c2cnn([C@@H]3O[C@H](CS(=O)(=O)CP(=O)(O)O)[C@@H](O)[C@H]3O)c2n1 [Compound 308, [(2S,3S,4R,5R)-5-[6-cyano-4-(cyclobutyl-amino)pyrazolo[3,4-d]-pyrimidin-1-yl]-3,4-dihydroxy-tetrahydro-furan-2-yl]methyl-sulfonylmethylphos-phonic acid] |
| 100 to 1000 | 100 to 1000 | O=P(O)(O)COC[C@H]1O[C@@H](c2c(Br)sc3c(N4CC5CCCC5C4)nc(Cl)nc23)[C@H](O)[C@@H]1O (stereo partly drawn) [Compound 297, [(2R,3S,4R,5S)-5-[4-(3,3a,4,5,6,6a-hexa-hydro-1H-cyclopenta-[c]pyrrol-2-yl)-6-bromo-2-chloro-thieno[3,2-d]-pyrimidin-7-yl]-3,4-dihydroxy-tetrahydro-furan-2-yl]methoxy-methylphosphonic acid] |
| 10 to 100 | 100 to 1000 | O=P(O)(O)COC[C@H]1O[C@@H](n2ccc3c(N4CCC[C@@H]4CO)nc(Cl)nc32)[C@H](O)[C@@H]1O [Compound 283, [(2R,3S,4R,5R)-5-[2-chloro-4-[(2R)-2-(hydroxymethyl)-pyrrolidin-1-yl]-pyrrolo[2,3-d]-pyrimidin-7-yl]-3,4-dihydroxy-tetrahydro-furan-2-yl]methoxy-methylphosphonic acid] |
| < 10 | < 10 | C#Cc1nc(NC2CCCC2)c2ccn([C@@H]3O[C@H](COCP(=O)(O)O)[C@@H](O)[C@H]3O)c2n1 [Compound 244, [(2R,3S,4R,5R)-5-[4-(cyclopentylamino)-2-ethynyl-pyrrolo[2,3-d]-pyrimidin-7-yl]-3,4-dihydroxy-tetrahydro-furan-2-yl]methoxy-methylphosphonic acid] |
| 10 to 100 | 10 to 100 | N#Cc1nc(N2CCC(F)(F)C2)c2cnn([C@@H]3O[C@H](CS(=O)(=O)CP(=O)(O)O)[C@@H](O)[C@H]3O)c2n1 [Compound 293, [(2S,3S,4R,5R)-5-[6-cyano-4-(3,3-difluoro-pyrrolidin-1-yl)-pyrazolo[3,4-d]-pyrimidin-1-yl]-3,4-dihydroxy-tetrahydro-furan-2-yl]methyl-sulfonylmethylphos-phonic acid] |
| < 10 | < 10 | O=P(O)(O)COC[C@H]1O[C@@H](c2csc3c(N4CC5CCCC5C4)nc(Cl)nc23)[C@H](O)[C@@H]1O (stereo partly drawn) [Compound 295, [(2R,3S,4R,5S)-5-[4-(3,3a,4,5,6,6a-hexa-hydro-1H-cyclopenta-[c]pyrrol-2-yl)-2-chloro-thieno[3,2-d]-pyrimidin-7-yl]-3,4-dihydroxy-tetrahydro-furan-2-yl]methoxy-methylphosphonic acid] |
